Measurements published in patent US20260191835A1, “COMBINATIONS COMPRISING A MENIN-MLL INHIBITOR AND AT LEAST ONE OTHER THERAPEUTIC AGENT” (JANSSEN PHARMACEUTICA NV, priority 2022, published 2026).

Assays:
[1] = tested on: MEIS1 mRNA expression; assay: MEIS1 mRNA expression assay (Quantigene Singleplex) in MOLM14; type: cell-based; settings: Homo sapiens, MOLM-14, 48 h, MOLM14 cells, 48 hours with compound
Method: 2b) MEIS1 mRNA Expression Assay
MEIS1 mRNA expression upon treatment of compound was examined by Quantigene Singleplex assay (Thermo Fisher Scientific). This technology allows for direct quantification of mRNA targets using probes hybridizing to defined target sequences of interest and the signal is detected using a Multimode plate reader Envision (PerkinElmer). The MOLM14 cell line was used for this experiment. Cells were plated in 96-well plates at 3,750 cells/well in the presence of increasing concentrations of compounds. After incubation of 48 hours with compounds, cells were lysed in lysis buffer and incubated for 45 minutes at 55° C. Cell lysates were mixed with human MEIS1 specific capture probe or human RPL28 (Ribosomal Protein L28) specific probe as a normalization control, as well as blocking probes. Cell lysates were then transferred to the custom assay hybridization plate (Thermo Fisher Scientific) and incubated for 18 to 22 hours at 55° C. Subsequently, plates were washed to remove unbound materials followed by sequential addition of preamplifiers, amplifiers, and label probe. Signals (=gene counts) were measured with a Multimode plate reader Envision. IC50s were calculated by dose-response modelling using appropriate software. For all non-housekeeper genes response equal counts corrected for background and relative expression. For each sample, each test gene signal (background subtracted) was divided by the normalization gene signal (RPL28: background subtracted). Fold changes were calculated by dividing the normalized values for the treated samples by the normalized values for the DMSO treated sample. Fold changes of each target gene were used for the calculation of IC50s.

[2] = molecular target: T1, Menin/MLL (terbium chelate-labeled menin, FITC-MBM1 peptide) (Homo sapiens, UniProt O00255, T541A); assay: Menin/MLL homogenous time-resolved fluorescence (HTRF) assay; type: binding; settings: 30 min incubation of test compound with terbium chelate-labeled menin
T1 construct: Menin (a.a 1-610-6×his tag)
T1 sequence (O00255 with tags, fused parts or gaps T541A): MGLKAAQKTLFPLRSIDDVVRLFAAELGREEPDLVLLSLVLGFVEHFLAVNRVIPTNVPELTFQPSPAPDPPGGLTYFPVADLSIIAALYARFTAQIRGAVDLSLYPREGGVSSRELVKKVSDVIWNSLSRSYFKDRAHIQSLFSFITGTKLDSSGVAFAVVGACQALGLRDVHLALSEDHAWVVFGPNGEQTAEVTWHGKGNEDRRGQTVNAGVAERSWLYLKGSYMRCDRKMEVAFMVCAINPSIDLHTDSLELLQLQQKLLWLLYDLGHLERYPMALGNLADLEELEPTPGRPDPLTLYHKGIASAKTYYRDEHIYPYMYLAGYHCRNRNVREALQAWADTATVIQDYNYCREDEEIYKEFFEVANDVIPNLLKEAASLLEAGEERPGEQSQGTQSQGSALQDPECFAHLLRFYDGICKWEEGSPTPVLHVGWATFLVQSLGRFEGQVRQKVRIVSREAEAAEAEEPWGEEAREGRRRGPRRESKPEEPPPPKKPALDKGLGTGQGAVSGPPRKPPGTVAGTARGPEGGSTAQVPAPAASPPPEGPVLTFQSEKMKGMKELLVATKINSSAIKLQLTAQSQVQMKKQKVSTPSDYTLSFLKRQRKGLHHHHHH
Method: 1) Menin/MLL Homogenous Time-Resolved Fluorescence (HTRF) Assay
To an untreated, white 384-well microtiter plate was added 40 nL 200× test compound in DMSO and 4 μL 2× terbium chelate-labeled menin (vide infra for preparation) in assay buffer (40 mM Tris·HCl, pH 7.5, 50 mM NaCl, 1 mM DTT (dithiothreitol) and 0.05% Pluronic F-127). After incubation of test compound and terbium chelate-labeled menin for 30 min at ambient temperature, 4 μL 2×FITC-MBM1 peptide (FITC-O-alanine-[…]-NH2) (“FITC” means fluorescein isothiocyanate) in assay buffer was added, the microtiter plate centrifuged at 1000 rpm for 1 min and the assay mixtures incubated for 15 min at ambient temperature. The relative amount of menin-FITC-MBM1 complex present in an assay mixture is determined by measuring the homogenous time-resolved fluorescence (HTRF) of the terbium/FITC donor/acceptor fluorphore pair using an EnVision microplate reader (ex. 337 nm/terbium em. 490 nm/FITC em. 520 nm) at ambient temperature. The degree of fluorescence resonance energy transfer (the HTRF value) is expressed as the ratio of the fluorescence emission intensities of the FITC and terbium fluorophores (F^em 520 nm/F^em 490 nm). […]
Compound potencies were determined by first calculating % inhibition at each compound concentration according to equation 1: […]

[3] = tested on: MOLM14 cells; assay: Proliferation assay (spheroid assay), MOLM14; type: cell-based; settings: Homo sapiens, MOLM-14, 192 h, 8 days; read-out: spheroid assay_MOLM14 IC50
Method: The anti-proliferative effect of menin/MLL protein/protein interaction inhibitor test compounds was assessed in human leukemia cell lines. The cell line MOLM14 harbors a MLL translocation and expresses the MLL fusion protein MLL-AF9, respectively, as well as the wildtype protein from the second allele. OCI-AML3 cells that carry the NPM1c gene mutation were also tested. […] KO-52 was used as a control cell line containing two MLL (KMT2A) wildtype alleles in order to exclude compounds that display general cytotoxic effects.
MOLM14 cells were cultured in RPMI-1640 (Sigma Aldrich) supplemented with 10% heat-inactivated fetal bovine serum (HyClone), 2 mM L-glutamine (Sigma Aldrich) and 50 μg/ml gentamycin (Gibco). KO-52 and OCI-AML3 cell lines were propagated in alpha-MEM (Sigma Aldrich) supplemented with 20% heat-inactivated fetal bovine serum (HyClone), 2 mM L-glutamine (Sigma Aldrich) and 50 µg/ml gentamycin (Gibco).
In order to assess the anti-proliferative effects, 200 MOLM14 cells, […] or 300 KO-52 cells were seeded in 200 μl media per well in 96-well round bottom, ultra-low attachment plates (Costar, catalogue number 7007). Cell seeding numbers were chosen based on growth curves to ensure linear growth throughout the experiment. Test compounds were added at different concentrations and the DMSO content was normalized to 0.3%. Cells were incubated for 8 days at 37° C. and 5% CO2. Spheroid like growth was measured in real-time by live-cell imaging (IncuCyteZOOM, Essenbio, 4× objective) acquiring images at day 8. Confluence (%) as a measure of spheroid size was determined using an integrated analysis tool.
In order to determine the effect of the test compounds over time, the confluence in each well as a measure of spheroid size, was calculated. Confluence of the highest dose of a reference compound was used as baseline for the LC (Low control) and the confluence of DMSO treated cells was used as 0% cytotoxicity (High Control, HC).
Absolute IC50 values were calculated as percent change in confluence as follows: • LC=Low Control: cells treated with e.g. […] of the cytotoxic agent staurosporin, or e.g. cells treated with a high concentration of an alternative reference compound • HC=High Control: Mean confluence (%) (DMSO treated cells)
GraphPad Prism (version 7.00) was used to calculate the IC50. Dose-response equation was used for the plot of % Effect vs Log 10 compound concentration with a variable slope and fixing the maximum to 100% and the minimum to 0%.

[4] = Dynamic vapor sorption (DVS) moisture sorption analysis; type: physicochemical
Method: Dynamic Vapor Sorption (DVS) The moisture sorption analysis (DVS) was performed using a ProUmid GmbH & Co. KG Vsorp Enhanced dynamic vapor sorption apparatus. The moisture profile was evaluated by monitoring vapor adsorption/desorption over the range of 0 to 90% relative humidity at 25° C. The sample weight equilibrium criteria were set at 0.01% change in 45 min with minimum and maximum time of acclimation at 50 min and 120 min, respectively. The moisture profile consisted of 2 cycles of vapor adsorption/desorption.

[5] = common ambient RH of 40% to 75%

SMILES | IC50 [1] [nM] | IC50 [3] [nM] | further results
Cc1cncc2c1c(CC1CN(CC3CCNC(=O)C3)C1)cn2-c1ccc(F)cc1C(=O)N(C)C(C)C (stereo not shown) [Compound 196] | 438 | – | –
CC(=O)N1CC[C@@H](N2CC(Cc3cn(-c4ccc(F)cc4C(=O)N(C)C(C)C)c4cncc(C)c34)C2)C[C@H]1C (single isomer, unassigned) [Compound 292a] | – | – | IC50 [2]: 0.132 nM
CC(=O)N1CCC(CN2CC[C@@H](Cc3cn(-c4ccc(F)cc4C(=O)N(C)C(C)C)c4cncc(C)c34)C2)CC1.Cl [Compound 51a] | – | – | solid-state form stability after the DVS test (XRPD) ([4]; 2 cycles of vapor adsorption/desorption): No indication of a solid-state form change was observed; total moisture mass at equilibrium [4, 5]: 8.5-9.5%; water content at equilibrium [4, 5]: around 3 equivalents of water; hygroscopicity (DVS change in mass) ([4]; crystalline HCl salt Form, 0 to 90% relative humidity at 25° C.): hygroscopic; moisture adsorbed and desorbed, by mass on average ([4]; humidity range of 20-90% RH, 25° C., slowly and reversibly): up to 2.5%

Continued by falling IC50 [1], values first:

IC50 [1] [nM] | IC50 [3] [nM] | SMILES | further results
365 | – | CC(=O)N1C[C@H]2CC(N3CC(Cc4cn(-c5ccc(F)cc5C(=O)N(C)C(C)C)c5cncc(C)c45)C3)C[C@H]2C1 (single isomer, unassigned) [Compound 294a] | IC50 [2]: 0.237 nM
187 | 42 | CC(=O)N1CCC(N2CC[C@H](Cc3cn(-c4ccc(F)cc4C(=O)N(C)C(C)C)c4cncc(C)c34)C2)CC1 [Compound 156] | –
153 | – | CC(=O)N1CC2CC(N3CC(Cc4cn(-c5ccc(F)cc5C(=O)N(C)C(C)C)c5cncc(C)c45)C3)CC2C1 (stereo not shown) [Compound 294b] | –
7 | 5 | COCC(=O)N1CCC(C(C)N2CCC(Cc3cn(-c4ccc(F)cc4C(=O)N(C)C(C)C)c4cncc(C)c34)C2)CC1 (single isomer, unassigned) [Compound 117a] | –
7 | 41 | CNC(=O)N1CCC(CN2CC[C@H](Cc3cn(-c4ccc(F)cc4C(=O)N(C)C(C)C)c4cncc(C)c34)C2)CC1 (single isomer, unassigned) [Compound 101] | –
